Experimental data taken from US7622582B2, “Derivatives of 1-phenyl-benzofuro[3,2]pyridin-2(1H)-one” (Tibotec BVBA, priority 2004, dated 2009).

System: HIV
Experiment: Cellular assay: anti-viral activity in HIV-infected MT4 cells (MTT cell viability)
Type: cell-based
Conditions: Human immunodeficiency virus 1, 120 h, five days incubation, MTT readout, negative logarithm of EC50 (protection of 50% of cells from cytopathogenic effect)
Method: The compounds of the present invention were examined for anti-viral activity in a cellular assay, which was performed according to the following procedure.
HIV- or mock-infected MT4 cells were incubated for five days in the presence of various concentrations of the inhibitor. At the end of the incubation period, the replicating virus in the control cultures has killed all HIV-infected cells in the absence of any inhibitor. Cell viability was determined by measuring the concentration of MTT, a yellow, water soluble tetrazolium dye that is converted to a purple, water insoluble formazan in the mitochondria of living cells only. Upon solubilization of the resulting formazan crystals with isopropanol, the absorbance of the solution was monitored at 540 nm. The values correlate directly to the number of living cells remaining in the culture at the completion of the five day incubation. The inhibitory activity of the compound was monitored on the virus-infected cells and was expressed as EC50 and EC90. These values represent the amount of the compound required to protect 50% and 90%, respectively, of the cells from the cytopathogenic effect of the virus. The toxicity of the compound was measured on the mock-infected cells and was expressed as CC50, which represents the concentration of compound required to inhibit the growth of the cells by 50%. The selectivity index (SI) (ratio CC50/EC50) is an indication of the selectivity of the anti-HIV activity of the inhibitor. Wherever results are reported as e.g. pEC50 or pCC50 values, the result is expressed as the negative logarithm of the result expressed as EC50 or CC50 respectively.
Table 2 lists the pEC50 values obtained in this test for a number of compounds of the invention.

| EC50 | Structure (SMILES) |
| --- | --- |
| 2510 nM | CC(=O)c1ccc(-n2c(=O)c(C)c(C#N)c3oc4ccccc4c32)cc1 [Compound 1, 1-(4-Acetyl-phenyl)-3-methyl-2-oxo-1,2-dihydro-benzo[4,5]furo[3,2-b]pyridine-4-carbonitrile] |
| 1580 nM | Cc1c(C#N)c(=O)n(-c2ccc([N+](=O)[O-])cc2)c2c1oc1cccnc12 [Compound 3, 4-Methyl-1-(4-nitrophenyl)-2-oxo-1,2-dihydro-furo[3,2-b;4,5-b′]dipyridine-3-carbonitrile] |
| 398 nM | COc1ccc2c(c1)oc1c(C)c(C#N)c(=O)n(-c3ccc([N+](=O)[O-])cc3)c12 [Compound 5, 7-Methoxy-4-methyl-1-(4-nitrophenyl)-2-oxo-1,2-dihydro-benzo[4,5]furo[3,2-b]-pyridine-3-carbonitrile] |
| 3160 nM | Cc1c(C#N)c(=O)n(-c2ccc([N+](=O)[O-])cc2)c2c1oc1cc(O)ccc12 [Compound 6, 7-Hydroxy-4-methyl-1-(4-nitrophenyl)-2-oxo-1,2-dihydro-benzo[4,5]furo[3,2-b]-pyridine-3-carbonitrile] |
